Laboratory results taken from patent US10428080B2, “TBK/IKK inhibitor compounds and uses thereof” (Merck Patent GmbH, priority 2015, dated 2019).
pIC50: −log10 of the molar value. Counter-ions that a name gives are not always drawn. Like-named read-outs stand apart in the source and are kept apart here.

Experiments:
IKKε = molecular target: T1, IKKε (Homo sapiens, UniProt Q14164); test: IKKe Biochemical Assay
T1 sequence (Q14164 1-716): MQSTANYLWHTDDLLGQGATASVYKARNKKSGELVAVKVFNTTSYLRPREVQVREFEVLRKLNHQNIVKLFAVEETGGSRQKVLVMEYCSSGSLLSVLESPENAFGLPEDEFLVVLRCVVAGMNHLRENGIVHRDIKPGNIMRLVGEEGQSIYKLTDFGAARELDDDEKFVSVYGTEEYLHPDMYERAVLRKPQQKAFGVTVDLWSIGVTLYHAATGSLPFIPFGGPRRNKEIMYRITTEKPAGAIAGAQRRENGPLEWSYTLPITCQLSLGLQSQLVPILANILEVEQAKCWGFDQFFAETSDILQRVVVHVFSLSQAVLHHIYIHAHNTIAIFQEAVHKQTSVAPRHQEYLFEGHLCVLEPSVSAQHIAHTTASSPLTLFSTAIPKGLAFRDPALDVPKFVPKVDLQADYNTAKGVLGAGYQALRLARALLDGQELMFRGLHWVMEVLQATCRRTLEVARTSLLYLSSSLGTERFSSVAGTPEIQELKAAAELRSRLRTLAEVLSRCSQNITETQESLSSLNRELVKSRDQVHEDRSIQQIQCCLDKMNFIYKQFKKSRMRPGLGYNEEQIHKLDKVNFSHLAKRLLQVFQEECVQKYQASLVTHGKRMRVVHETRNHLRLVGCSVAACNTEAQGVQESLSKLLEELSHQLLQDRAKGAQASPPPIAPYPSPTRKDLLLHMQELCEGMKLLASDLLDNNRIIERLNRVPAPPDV
Outline: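 Activity was measured as mobility-shift separation of phosphorylated from unphosphorylated substrate on a LabChip EZ Reader. Compound was titrated from 30 uM final in 10 points, 1:4 steps, with 1% DMSO, and enzyme plus substrate reacted 90 min at 25° C before stop buffer. Control wells held 10 uM staurosporine.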

TBK1 = molecular target: T2, TBK1 (Homo sapiens, UniProt Q9UHD2); test: TBK Biochemical Assay
T2 sequence (Q9UHD2 1-729): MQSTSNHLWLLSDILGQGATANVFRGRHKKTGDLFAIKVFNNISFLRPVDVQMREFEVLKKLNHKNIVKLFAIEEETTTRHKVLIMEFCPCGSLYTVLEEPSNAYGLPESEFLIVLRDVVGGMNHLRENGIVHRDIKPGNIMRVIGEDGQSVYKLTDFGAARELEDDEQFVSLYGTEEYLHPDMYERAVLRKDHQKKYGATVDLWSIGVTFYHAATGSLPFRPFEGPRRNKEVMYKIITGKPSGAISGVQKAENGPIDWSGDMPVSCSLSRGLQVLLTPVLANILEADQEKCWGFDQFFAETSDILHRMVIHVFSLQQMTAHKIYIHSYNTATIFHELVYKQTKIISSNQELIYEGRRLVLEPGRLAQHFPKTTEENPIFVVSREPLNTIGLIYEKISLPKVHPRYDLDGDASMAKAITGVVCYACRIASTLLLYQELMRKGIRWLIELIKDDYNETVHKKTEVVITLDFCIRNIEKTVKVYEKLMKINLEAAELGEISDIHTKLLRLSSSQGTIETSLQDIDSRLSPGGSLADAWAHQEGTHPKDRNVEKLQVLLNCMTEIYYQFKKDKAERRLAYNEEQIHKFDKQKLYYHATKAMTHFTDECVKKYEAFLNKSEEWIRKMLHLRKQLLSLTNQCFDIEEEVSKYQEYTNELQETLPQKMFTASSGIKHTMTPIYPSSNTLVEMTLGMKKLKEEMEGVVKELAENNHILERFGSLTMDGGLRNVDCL
Outline: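 Caliper LabChip mobility-shift readout of substrate and product after 90 min of TBK1 reaction at 25° C and stop-buffer addition. Compounds tested in 1:4 serial dilution over 10 points from 30 uM final at 1% DMSO; staurosporine 10 uM final defines full inhibition.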

[1] = system: phosphorylation of the IRF-3 protein in MDA-MB-468 cells; test: pIRF3 immunocytochemistry cell based assay; details: Homo sapiens
Outline: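 After 2 h stimulation with Poly(I:C) (10 ug/ml), following 1 h compound pre-treatment (10-point, 3-fold dilution, top 10 uM), MDA-MB-468 cells were fixed and stained with anti-pIRF3 antibody. pIRF3 fluorescence was normalized to PI staining or cell count on an Acumen cytometer. IC50 curves were derived from this.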

[2] = MDA-MB-468 cells, Poly(I:C) stimulation, read-out: pIRF3 IC50

SMILES	pIC50 (IKKε; read-out: IKKε IC50)	pIC50 (TBK1; read-out: TBK1 IC50)	pIC50 [1, 2]	pIC50 (IKKε)	pIC50 (TBK1; TBK1 IC50)	pIC50 ([1]; MDA-MB-468, read-out: pIRF3 IC50)
COc1cc(C(=O)N2CC[C@@H](N(C)C)C2)ncc1-c1cc2nccc(-c3ccc(N4CC[C@H](F)C4)c(C#N)c3)c2o1 [Compound 450, 5-[2-(6-[[(3R)-3-(dimethylamino)pyrrolidin-1-yl]carbonyl]-4-methoxypyridin-3-yl)furo[3,2-b]pyridin-7-yl]-2-[(3S)-3-fluoropyrrolidin-1-yl]benzonitrile]	> 7.00	> 7.00	6.00 to 7.00	–	–	–
COc1cc(C(=O)N2CC[C@H](N(C)C)C2)ccc1-c1cc2nccc(-c3ccc(N4CC[C@H](F)C4)c(C#N)c3)c2o1 [Compound 47, 5-{2-[4-((S)-3-Dimethylamino-pyrrolidine-1-carbonyl)-2-methoxy-phenyl]-furo[3,2-b]pyridin-7-yl}-2-((S)-3-fluoro-pyrrolidin-1-yl)-benzonitrile]	> 7.00	> 7.00	6.00 to 7.00	–	–	–
COc1cc(C(=O)N2CCCCN2C)ccc1-c1cc2nccc(-c3ccc(OC4CCOCC4)c(C#N)c3)c2o1 [Compound 478, 5-{2-[2-Methoxy-4-(2-methyl-tetrahydro-pyridazine-1-carbonyl)-phenyl]-furo[3,2-b]pyridin-7-yl}-2-(tetrahydro-pyran-4-yloxy)-benzonitrile]	> 7.00	> 7.00	6.00 to 7.00	–	–	–
COc1cc(C(=O)N(C)C)ncc1-c1cc2nccc(-c3ccc(OC4CCOCC4)c(C#N)n3)c2o1 [Compound 387, 5-[7-[6-cyano-5-(oxan-4-yloxy)pyridin-2-yl]furo[3,2-b]pyridin-2-yl]-4-methoxy-N,N-dimethylpyridine-2-carboxamide hydrochloride]	> 7.00	> 7.00	6.00 to 7.00	–	–	–
COc1cc(C(=O)N2CCN(C)CC2)cnc1-c1cc2nccc(-c3ccc(N4CC[C@H](F)C4)c(C#N)c3)c2o1 [Compound 461, 2-(3(S)-fluoropyrrolidin-1-yl)-5-(2-[3-methoxy-5-[(4-methylpiperazin-1-yl)carbonyl]pyridin-2-yl]furo[3,2-b]pyridin-7-yl)benzonitrile]	> 7.00	> 7.00	> 7.00	–	–	–
COc1cc(C(=O)N(C)C)ccc1-c1cc2nccc(-c3cnc(OC4CCOCC4)c(C#N)c3)c2o1 [Compound 109, 4-{7-[5-Cyano-6-(tetrahydro-pyran-4-yloxy)-pyridin-3-yl]-furo[3,2-b]pyridin-2-yl}-3-methoxy-N,N-dimethyl-benzamide]	> 7.00	> 7.00	6.00 to 7.00	–	–	–
COc1cc(C(=O)N(C)C)ncc1-c1cc2nccc(-c3cnc(OC4CCOCC4)c(C#N)c3)c2o1 [Compound 388, 5-[7-[5-cyano-6-(oxan-4-yloxy)pyridin-3-yl]furo[3,2-b]pyridin-2-yl]-4-methoxy-N,N-dimethylpyridine-2-carboxamide]	> 7.00	> 7.00	6.00 to 7.00	–	–	–
COc1cc(C(=O)N2CC(N(C)C)C2)ccc1-c1cc2nccc(-c3ccc(OC4CCOCC4)c(C#N)c3)c2o1 [Compound 24, 5-{2-[4-(3-Dimethylamino-azetidine-1-carbonyl)-2-methoxy-phenyl]-furo[3,2-b]pyridin-7-yl}-2-(tetrahydro-pyran-4-yloxy)-benzonitrile]	> 7.00	> 7.00	> 7.00	–	–	–
COc1cc(C(=O)N(C)C)ccc1-c1cc2nccc(-c3ccc(NC4CCOCC4O)c(C#N)c3)c2o1 (stereo not drawn) [Compound 82]	> 7.00	> 7.00	6.00 to 7.00	–	–	–
COc1cc(C(=O)N[C@H]2[C@@H]3C[C@H]2CN(C)C3)ccc1-c1cc2nccc(-c3ccc(OC4CCOCC4)c(C#N)c3)c2o1 (single isomer, unassigned) [Compound 365]	> 7.00	> 7.00	6.00 to 7.00	–	–	–
COc1cc(C(=O)N(C)C)ncc1-c1cc2nccc(-c3ccc(NC4CCNC4)c(C#N)c3)c2o1 (stereo not drawn) [Compound 431, 5-(7-[3-cyano-4-[(pyrrolidin-3-yl)amino]phenyl]furo[3,2-b]pyridin-2-yl)-4-methoxy-N,N-dimethylpyridine-2-carboxamide]	> 7.00	> 7.00	> 7.00	–	–	–
COc1cc(C(=O)NCC2(C)COC2)ccc1-c1cc2nccc(-c3ccc(OC4CCOCC4)c(C#N)c3)c2o1 [Compound 59, 4-{7-[3-Cyano-4-(tetrahydro-pyran-4-yloxy)-phenyl]-furo[3,2-b]pyridin-2-yl}-3-methoxy-N-(3-methyl-oxetan-3-ylmethyl)-benzamide]	> 7.00	> 7.00	6.00 to 7.00	–	–	–
COc1cc(C(=O)N(C)C)ccc1-c1cc2nccc(-c3ccc(OC4CCOC4)c(C#N)c3)c2o1 (stereo not drawn) [Compound 90, 4-{7-[3-Cyano-4-(tetrahydro-furan-3-yloxy)-phenyl]-furo[3,2-b]pyridin-2-yl}-3-methoxy-N,N-dimethyl-benzamide]	> 7.00	> 7.00	6.00 to 7.00	–	–	–
CN(C)C(=O)c1ccc(-c2cc3ncc(F)c(-c4ccc(NC5CCOCC5)c(C#N)c4)c3o2)c(F)c1 [Compound 300, 4-(7-[3-cyano-4-[(oxan-4-yl)amino]phenyl]-6-fluorofuro[3,2-b]pyridin-2-yl)-3-fluoro-N,N-dimethylbenzamide]	6.00 to 7.00	6.00 to 7.00	5.30 to 6.00	–	–	–
COc1cc(C(=O)NC2CN3CCC2CC3)ccc1-c1cc2nccc(-c3ccc(NC4C5COCC54)c(C#N)c3)c2o1 (stereo not drawn) [Compound 119, N-(1-Aza-bicyclo[2.2.2]oct-3-yl)-4-{7-[3-cyano-4-(3-oxa-bicyclo[3.1.0]hex-6-ylamino)-phenyl]-furo[3,2-b]pyridin-2-yl}-3-methoxy-benzamide]	–	–	–	> 7.00	> 7.00	> 7.00
CN(C)C(=O)c1ccc(-c2cc3nccc(-c4ccc(N5CC[C@H](N(C)C)C5)c(C#N)c4)c3o2)cc1 [Compound 173, 4-{7-[3-Cyano-4-((S)-3-dimethylamino-pyrrolidin-1-yl)-phenyl]-furo[3,2-b]pyridin-2-yl}-N,N-dimethyl-benzamide]	6.00 to 7.00	6.00 to 7.00	5.30 to 6.00	–	–	–
COc1cc(C(=O)N(C)C)ccc1-c1cc2nccc(-c3ccc(OC4CCNC4)c(C#N)c3)c2o1 (stereo not drawn) [Compound 108, 4-{7-[3-Cyano-4-(pyrrolidin-3-yloxy)-phenyl]-furo[3,2-b]pyridin-2-yl}-3-methoxy-N,N-dimethyl-benzamide]	> 7.00	> 7.00	> 7.00	–	–	–
COc1cc(C(=O)NC(C)(C)CN(C)C)ccc1-c1cc2nccc(-c3ccc(NC4CCOCC4)c(C#N)c3)c2o1 [Compound 134, 4-{7-[3-Cyano-4-(tetrahydro-pyran-4-ylamino)-phenyl]-furo[3,2-b]pyridin-2-yl}-N-(2-dimethylamino-1,1-dimethyl-ethyl)-3-methoxy-benzamide]	> 7.00	> 7.00	6.00 to 7.00	–	–	–
COc1cc(C(=O)N(C)C)ccc1-c1cc2nccc(-c3ccc(NC4CCNC4)c(C#N)c3)c2o1 (stereo not drawn) [Compound 521]	> 7.00	> 7.00	> 7.00	–	–	–
